Assay [1] concerns β-GlcNAc:β1,4Gal-T of colon tumor CC9338. In words: β-GlcNAc:β1,4Gal-T assay, colon tumor extract. It is filed as biochemical, human. Particulars: for a) β-GlcNAc:β1,4Gal-T activity: incorporation of radioactive sugar: other acceptors, 1 mg protein of the tissue extract. As for the experimental part: (§1) Colon tumor tissue (CC9338) and breast tumor tissue (BC9400) were obtained during surgical procedures at Roswell Park Cancer Institute and stored frozen within 1 h at −70° C. The tissues were homogenized at 4° C. with 4 volumes of 0.1M Tris Maleate […] 0.1% NaN3 using kinematica. After adjusting the concentration of Triton X-100 to 2%, these homogenates were mixed in the cold room for 1 h using Speci-Mix (Thermolyne) and then centrifuged at 20,000 g for 1 h at 4° C. The clear fat-free supernatant was stored frozen at −20° C. until use. Aliquots of 10 μL from this extract were used in assays run in duplicates. Glycosyltransferase activity in cell lysate was determined by mixing the lysates with acceptor and radiolabeled donor (monosaccharide) under the reaction conditions detailed below, followed by separation of un-reacted donor from the radioactive product using anionic or hydrophobic chromatography. In all cases, the radioactive content of isolated products was determined by using 3a70 scintillation cocktail (Research Products International, Mount Prospect, Ill.) and a Beckman LS6500 scintillation counter. Controls for each assay contained the reaction mixture with everything except the acceptor. All assays were run in duplicate.
(§2) The acceptors used for measuring the glycosyltransferase and sulfotransferase activities are given in Table I. The following are the conditions for individual enzymatic assays. Reaction temperature in all cases was 37° C. α2,3- and α2,6 sialytransferase (ST) assay reactions proceeded for 2 h in a mixture containing 100 mM sodium cacodylate buffer (pH 6.0), 7.5 mM acceptor, CMP-[9-^3H]NeuAc (typically 0.2 μCi) and 10 μl cell extract in a total volume of 20 μl [Chandrasekaran et al., 1995]. βGlcNAc:β1,4Gal-T and αGalNAc:β1,3Gal-T assay mixtures in duplicate contained 0.1M Hepes-NaOH pH 7.0, 7 mM ATP, 20 mM Mn acetate, 1 mM UDP-Gal, UDP [^14C]Gal (0.05 μCi; 327mCi/mmol; Amersham), 0.5 mM acceptor (unless otherwise stated) and the enzyme in a total volume of 20 μL. It was incubated for 4 h [Chandrasekaran et al., 2001]. βGlcNAc:β1,4GalNAc-T assay mixtures in duplicate contained 0.1M Hepes-NaOH pH 7.0, 7 mM ATP, 20 mM Mn acetate. UDP [^3H] GalNAc (0.20 μCi; 7.8 Ci/mmol: New England Nuclear Corp.) 7.5 mM acceptor (unless otherwise stated) and the enzyme in a total volume of 20 μL and incubated for 4 h [Chandrasekaran et al., 2001].
(§3) Dowex-1-C1 or Sep-Pak C18 cartridges were used to isolate radiolabeled product from the reaction mixture. For GalT, GalNAc-T and FT assays, the incubation mixture was diluted with 1 ml water and passed through a 1 ml Dowex-1-C1 column [Chandrasekaran et al., 1996; Chandrasekaran et al., 2001]. The column was washed twice with 1 ml of water. The breakthrough and the water wash contained the [^14C]-galactosylated or [^14C]-fucosylated products formed with neutral acceptors. 3 ml of 0.1M NaCl was used to obtain [^14C]-fucosylated products from sialylated acceptors after water elution. For sialytransferase assays, the radioactive products from benzylglycosides were separated by hydrophobic chromatography on Sep-Pak C18 cartridge (Waters, Milford, Mass.), and elution of the product was done with 3 ml methanol [Palcic et al., 1988]. For sulfotransferase assays, elution of the [^35S]-sulfated compound from Dowex-1-C1 column was achieved by 3 ml of 0.2M NaCl [Chandrasekaran et al., 2004].

Assay [2] concerns β-GlcNAc:β1,4Gal-T of breast tumor BC9400. In words: β-GlcNAc:β1,4Gal-T assay, breast tumor extract. It is filed as biochemical, human. Particulars: for a) β-GlcNAc:β1,4Gal-T activity: incorporation of radioactive sugar: other acceptors, 1 mg protein of the tissue extract. How it is done: as §1, §2, §3
Assay [3] relates to β-GlcNAc:β1,4GalNAc-T of colon tumor CC9338. In words: β-GlcNAc:β1,4GalNAc-T assay, colon tumor extract. Particulars: for b) β-GlcNAc:β1,4GalNAc-T activity: incorporation of radioactive sugar: other acceptors, 1 mg protein of the tissue extract. The assay is classed as biochemical, human. How it is done: as §1, §2, §3
Assay [4] has as its system β-GlcNAc:β1,4GalNAc-T of breast tumor BC9400. The experiment in a line: β-GlcNAc:β1,4GalNAc-T assay, breast tumor extract. It is filed as biochemical, human. The settings on record: for b) β-GlcNAc:β1,4GalNAc-T activity: incorporation of radioactive sugar: other acceptors, 1 mg protein of the tissue extract. How it is done:
as §1, §2, §3

Assay [5] has as its system Siglec 4 (MAG). Particulars: Blixt et al. (49); cited from earlier work.
[6] abbreviates: Gal-T activity with the same acceptor = 100.0%.
Setting [7] is: relative to Gal-T activity with the same acceptor.

Regarding `CO[C@@H]1O[C@H](CO)[C@H](O)[C@H](O[C@@H]2O[C@H](CO)[C@@H](O)[C@H](O)[C@H]2NC(C)=O)[C@H]1O` [GlcNAcβ1,3Galβ-O-Me], the “a) β-GlcNAc:β1,4Gal-T activity: incorporation of radioactive sugar” value in assay [1] is 247.9 CPM × 10^−3; in assay [2] it was 338.5 CPM × 10^−3. Further, the “b) β-GlcNAc:β1,4GalNAc-T activity: incorporation of radioactive sugar” value in assay [3] is recorded as 20.9 CPM × 10^−3; in assay [4], 60.9 CPM × 10^−3.
In the case of `C=CCO[C@H]1O[C@H](CO[C@@H]2O[C@H](CO)[C@@H](O)[C@H](O)[C@H]2NC(C)=O)[C@@H](O)[C@H](O)[C@@H]1O` [GlcNAcβ1,6Manα-O—Al], the “a) β-GlcNAc:β1,4Gal-T activity, percent in parentheses” value in assay [1] (setting [6]) and in assay [2] (setting [6]) was 100.0% throughout. Further, the “a) β-GlcNAc:β1,4Gal-T activity: incorporation of radioactive sugar” value in assay [1] is recorded as 493.4 CPM × 10^−3; in assay [2], 443.6 CPM × 10^−3. Further, the “b) β-GlcNAc:β1,4GalNAc-T activity: incorporation of radioactive sugar” value in assay [3] is recorded as 54.5 CPM × 10^−3; in assay [4], 99.2 CPM × 10^−3. The “b) β-GlcNAc:β1,4GalNAc-T activity, percent in parentheses” value in assay [3] (setting [7]) came to 11.0%; in assay [4] (setting [7]) it was 22.4%.
Consider `CC(=O)NC1C(O)CC(OCC2OC(OC(C)C(N)C(=O)O)C(NC(C)=O)C(OC3OC(CO)C(O)C(OC4(C(=O)O)CC(O)C(NC(C)=O)C(C(O)C(O)CO)O4)C3O)C2O)(C(=O)O)OC1C(O)C(O)CO` (stereo not drawn) [NeuAcα2,3Galβ1,3(NeuAcα2,6)GalNAcα-O-Thr, NeuAcα2,3Galβ1,3 (NeuAcα2,6)GalNAcα-O-Thr], for which, in assay [5], the “fold more potent than NeuAcα2,6GalNAcα-O-Thr in inhibiting Siglec 4 (MAG) binding” value is recorded as 3,000 fold.
For `CC(=O)NC1C(O)CC(OC2C(O)C(CO)OC(OC3C(O)C(CO)OC(OC(C)C(N)C(=O)O)C3NC(C)=O)C2O)(C(=O)O)OC1C(O)C(O)CO` (stereo not drawn) [NeuAcα2,3Galβ1,3GalNAcα-O-Thr], the “fold more potent than NeuAcα2,6GalNAcα-O-Thr in inhibiting Siglec 4 (MAG) binding” value in assay [5] was 600 fold.
For `CC(=O)NC1C(O)CC(OCC2OC(OC(C)C(N)C(=O)O)C(NC(C)=O)C(OC3OC(CO)C(O)C(O)C3O)C2O)(C(=O)O)OC1C(O)C(O)CO` (stereo not drawn) [NeuAcα2,6(Galβ1,3)GalNAcα-O-Thr], the “fold more potent than NeuAcα2,6GalNAcα-O-Thr in inhibiting Siglec 4 (MAG) binding” value in assay [5] is 100 fold.

Source of the values: patent publication US20100221763A1, “Specific Acceptors for Transferases to Saccharides and Method for Obtaining and Using Same” (Health Research, Inc, priority 2005, published 2010).
